# According to patent US6127396A, “Imidazoline compounds” (Adir et Compagnie, priority 1998, dated 2000):
# Counter-ions that a name gives are not always drawn.
# Legend:
# Format in all cases: binding
# α2-adrenergic receptors = experiment: Affinity for α2-adrenergic receptors in the rat, competition with [3H]-RX 821,002; conditions: rat cerebral cortex membranes, 0.4 nM [3H]-RX 821,002, 60 minutes at 22° C.
# Procedure: Determination of the Affinity for α2 -adrenergic Receptors in the Rat
# The affinity was determined by competition experiments with [^3 H]-RX 821,002. The membranes are prepared from the cerebral cortex of the rat and are incubated in triplicate with 0.4 nM [^3 H]-RX 821,002 and the compound being tested in a final volume of 1.0 ml, for 60 minutes at 22° C. The incubation buffer contains […] TRIS-HCl (pH 7.5), 1 mM EDTA and 100 μM GppNHp. The non-specific binding is determined using 10 μM phentolamine.
# (§1) At the end of the incubation, the incubation medium is filtered through WHATMAN GF/B filters impregnated with 0.1% of polyethylenimine and washed three times with 5 ml of cooled buffer. The radioactivity retained on the filters is determined by liquid scintillation counting. The binding isotherms are analysed by non-linear regression.
# serotonin reuptake sites = biological target: T1, serotonin reuptake sites (Rattus norvegicus, UniProt P31652); experiment: Affinity for serotonin reuptake sites in the rat, competition with [3H]-paroxetine; conditions: rat frontal cortex membranes, 0.25 nM [3H]-paroxetine, 2 hours at 25° C.
# T1 construct: The membranes are prepared from the frontal cortex of the rat; from tissue; host or cells: rat frontal cortex membranes
# Procedure: Determination of the Affinity for Serotonin Reuptake Sites in the Rat
# The affinity was determined by competition experiments using [^3 H]-paroxetine. The membranes are prepared from the frontal cortex of the rat and are incubated in triplicate with 0.25 nM [^3 H]-paroxetine and the compound being tested in a final volume of 0.4 ml, for 2 hours at 25° C. The incubation buffer contains 50 mM TRIS-HCl (pH 7.4), 120 mM NaCl and 5 mM KCN. The non-specific binding is determined using 10 μM citalopram.
# as §1
# [1] = biological target: T2, noradrenaline reuptake sites (Rattus norvegicus, UniProt Q63380); experiment: Affinity for noradrenaline reuptake sites in the rat, competition with [3H]-nisoxetine; conditions: rat frontal cortex membranes, 2 nM [3H]-nisoxetine, 4 hours at 4° C.
# T2 construct: The membranes are prepared from the frontal cortex of the rat; from tissue; host or cells: rat frontal cortex membranes
# Procedure: Determination of the Affinity for Noradrenaline Reuptake Sites in the Rat
# The affinity was determined by competition experiments using [^3 H]-nisoxetine. The membranes are prepared from the frontal cortex of the rat and are incubated in triplicate with 2 nM [^3 H]-nisoxetine and the compound being tested in a final volume of 0.5 ml, for 4 hours at 4° C. The incubation buffer contains 50 mM TRIS-HCl (pH 7.4), 120 mM NaCl and 5 mM KCl. The non-specific binding is determined using 10 μM desipramine.
# as §1
# T2 sequence (Q63380 1-617): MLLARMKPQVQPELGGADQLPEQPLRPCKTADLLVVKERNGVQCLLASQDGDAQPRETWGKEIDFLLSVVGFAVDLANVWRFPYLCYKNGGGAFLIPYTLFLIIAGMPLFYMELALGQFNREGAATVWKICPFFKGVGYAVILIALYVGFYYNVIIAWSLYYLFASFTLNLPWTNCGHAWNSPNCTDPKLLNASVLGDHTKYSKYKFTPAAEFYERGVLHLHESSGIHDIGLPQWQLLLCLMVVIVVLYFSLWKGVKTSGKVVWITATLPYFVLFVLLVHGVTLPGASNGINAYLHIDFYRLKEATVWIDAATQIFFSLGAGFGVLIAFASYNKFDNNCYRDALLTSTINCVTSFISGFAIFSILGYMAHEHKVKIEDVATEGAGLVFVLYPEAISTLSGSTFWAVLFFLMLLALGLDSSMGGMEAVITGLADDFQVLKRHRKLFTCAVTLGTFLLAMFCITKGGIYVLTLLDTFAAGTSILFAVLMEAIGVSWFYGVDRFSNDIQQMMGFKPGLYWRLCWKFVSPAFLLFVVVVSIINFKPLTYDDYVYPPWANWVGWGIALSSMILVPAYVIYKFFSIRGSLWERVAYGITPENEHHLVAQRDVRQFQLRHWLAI
# T1 sequence (P31652 whole entry): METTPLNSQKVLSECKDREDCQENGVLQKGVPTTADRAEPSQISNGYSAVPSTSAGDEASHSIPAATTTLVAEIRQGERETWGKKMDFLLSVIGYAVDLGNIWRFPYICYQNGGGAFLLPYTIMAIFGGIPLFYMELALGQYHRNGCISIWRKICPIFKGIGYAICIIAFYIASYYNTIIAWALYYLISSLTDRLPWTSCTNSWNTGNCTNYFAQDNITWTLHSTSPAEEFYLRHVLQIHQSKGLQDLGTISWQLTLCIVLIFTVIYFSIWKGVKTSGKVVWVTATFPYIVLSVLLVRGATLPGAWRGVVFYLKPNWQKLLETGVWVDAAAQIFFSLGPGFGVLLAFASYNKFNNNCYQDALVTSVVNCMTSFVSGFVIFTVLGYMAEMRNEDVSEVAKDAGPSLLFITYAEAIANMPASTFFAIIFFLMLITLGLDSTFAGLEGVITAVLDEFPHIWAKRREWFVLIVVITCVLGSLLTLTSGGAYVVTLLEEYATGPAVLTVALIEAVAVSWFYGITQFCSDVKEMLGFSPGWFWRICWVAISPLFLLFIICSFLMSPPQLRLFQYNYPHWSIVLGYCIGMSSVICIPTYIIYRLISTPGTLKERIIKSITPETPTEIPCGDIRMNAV
compound,measurement,setting,value
"C1=NCC(CC2Cc3ccccc3C2)N1 (stereo not drawn) [Example 22, 4-(2,3-Dihydro-1H-inden-2-ylmethyl)-4,5-dihydro-1H-imidazole hemi-fumarate]",pKi,α2-adrenergic receptors,8.8
"COc1cccc2c1C=C(CC1CNC=N1)CC2.O=C(O)/C=C/C(=O)O (stereo not drawn) [Example 12, 4-[(8-Methoxy-3,4-dihydro-2-naphthyl)methyl]-4,5-dihydro-1H-imidazole fumarate]",pKi,serotonin reuptake sites,7.8
"C1=N[C@H](CC2=Cc3ccccc3CC2)CN1 [Example 2, (4R)-4-(3,4-dihydro-2-naphthylmethyl)-4,5-dihydro-1H-imidazole fumarate]",Ki,[1],15.8 nM
